Where a name gives a salt, the structure may show the parent alone.
Experiments:
[1] = system: ischemia-induced neurological symptoms in the Mongolian Gerbil; experiment: Improvement of ischemia-induced neurological symptoms in the Mongolian gerbil caused by ligation of the bilateral common carotid arteries for 30 minutes; format: in vivo; settings: 100 mg/kg i.p. upon recommencement of blood flow
Procedure: The test animals employed were male adult Mongolian gerbils (16-20 weeks old). These were used in groups each consisting of from 10 to 20 animals. The bilateral common carotid arteries were occluded for 30 minutes under anesthesia with pentobarbital (30 mg/kg, intraperitoneally) and halothane (it was introduced to a mixture of 95% oxygen and 5% carbon dioxide at a concentration of 1.5% by volume) and then the occlusion was released to allow the blood to flow. The animal was then placed in a supine position, and we measured (1) the time taken from recommencement of blood flow until convulsions occurred and (2) the survival time. Observations to determine the onset time of convulsions and the survival time were continued for 6 and 7 hours, respectively, after recommencement of blood flow. […] The compound to be tested was suspended in a 0.5% w/v carboxymethyl cellulose (CMC) aqueous solution and administered intraperitoneally upon recommencement of blood flow in the common carotid arteries. On the other hand, a 0.5% CMC solution containing no test compound was administered likewise to a control group. Statistical analysis was carried out using the Mann-Whitney U-test between the control group and the test group.

[2] = system: ischemia-induced neurological symptoms in SHR SP; experiment: Improvement in ischemia-induced neurological symptoms in Spontaneously Hypertensive Rats Stroke Prone (SHR SP) caused by ligation of the bilateral common carotid arteries; format: in vivo, rat (SHR SP)
Procedure: The test animals employed were male adult SHR SPs (13 or 15 weeks old). They were used in groups each consisting of about 10 animals. Under halothane anesthesia, both common carotid arteries of each animal were ligated to prepare a brain ischemia model. The halothane anesthesia was stopped immediately after the ligation, and then the time taken to recover the righting reflex, the onset time of convulsions and the survival time were determined. The test solution was prepared in the same manner as described in Experiment 1 and was administered to the animal intraperitoneally 30 minutes before the ligation. A 0.5% CMC solution was administered to the control group in the same manner. The statistical analysis was carried out in a similar manner to that in Experiment 1. The statistical analysis of the survival rate was carried out by the X^2 test.

[3] = system: decerebrate rigidity in rats; experiment: Suppression of decerebrate rigidity in rats; format: in vivo, rat
Source text: The suppression of decerebrate rigidity in laboratory animals, such as rats, is a well known model for control of human spasticity and/or rigidity.
In the test method, a rat was anesthetized with halothane and fixed on a stereotaxic apparatus (SR-5, Narishige). In accordance with the brain atlas by Pellegrino et al., [L. J. Pellegrino, A. S. Pellegrino & A. J. Cushman: A Stereotaxic Atlas of the Rat Brain, Plenum Press, New York and London (1967)], an electrode 0.7 mm in diameter, which was insulated except for 1 mm at the tip, was inserted bilaterally into the midbrain reticular formation (AP: 0, L: ±1.5, H: -3.0). A clip serving as the reference electrode was fixed on the temporal muscle. Through these electrodes, a high frequency electric current (100 KHz, 10 to 20 mA) was applied from a lesion generator (Glass Co., LM4A) for 2 to 3 minutes to cauterize electrically this brain region.
The rat was then immediately set free from the stereotaxic apparatus. A polyethylene cannula was inserted into the duodenum and fixed with an acrylic resin (Aron Alfa, Sankyo Co., Ltd.). After completion of these operations, halothane anesthesia was immediately discontinued.
After 1.5 hours, when the animal awoke from the anesthesia, the rat was fixed on an apparatus devised in our laboratory for a hind leg fixation. Both hind legs were fixed at the anterior part of the ankle joints. Both hindlimb paws were then pushed in 4 mm for 6 seconds in every minute. The resulting repulsive tension was drawn on a polygraph through a strain gauge.
The test compounds were suspended in a 0.5% w/v CMC (carboxymethyl cellulose) aqueous solution and were administered orally (p.o.) or intraperitoneally (i.p.).
The results are summarized in the following Table 7, where the compounds of the present invention are identified by the number of the foregoing Example in which each was prepared, Compound X is the known compound eperisone hydrochloride, and Compound Y is the known compound afloqualone.

[4] = system: survival time under hypoxic conditions; experiment: Effect on survival time under hypoxic conditions; format: in vivo, mouse (ddY strain); settings: 4% oxygen, 96% nitrogen
Source text: The test animals employed were male adult mice (5 weeks old and about 30 g body weight) of the ddY strain. The animals were employed in groups, each containing from 7 to 17 animals. Each animal was given intraperitoneally a test compound in suspension (as in the preceding Experiments). Thirty (30) minutes after this administration, 2 or 3 animals were placed in a 1.5 liter gas chamber made of acrylate resin, and a mixture of 4% by volume oxygen and 96% nitrogen was supplied at the rate of 10 liters/minute. The time of death of the animal was measured (determined by the cessation of respiration).

[5] = 30 mg/kg i.p. 30 minutes before ligation
[6] = 100 mg/kg i.p. 30 minutes before ligation

| Compound | Onset time of convulsions [1] [min] | Survival time [1] [min] | Onset time of convulsions [2, 5] [min] | Recovery time of righting reflex [2, 5] [min] | Survival time [2, 5] [min] | Onset time of convulsions [2, 6] [min] | Recovery time of righting reflex [2, 6] [min] | Survival time [2, 6] [min] | Onset time of convulsions and survival time, in words ([2]; 30 mg/kg) | Survival rate [2, 5] [%] | Onset time of convulsions and survival time, in words ([2]; 100 mg/kg) | Survival rate [2, 6] [%] | Survival time ([4]; 30 mg/kg i.p.) [s] | Survival time ([4]; 100 mg/kg i.p.) [s] | also measured |
| --- | --- | --- | --- | --- | --- | --- | --- | --- | --- | --- | --- | --- | --- | --- | --- |
| O=c1c(Cl)c(-c2ccccc2)on1CC(O)CN1CCOCC1 (stereo not drawn) [2a hydrochloride] | 289.4 | 375.7 | 99.8 ± 27.8 | 8.0 ± 1.7 | 232.1 ± 35.8 | 103.5 ± 16.2 | 7.6 ± 1.7 | 233.0 ± 28.7 |  |  |  |  |  |  |  |
| NC(=O)OCC(O)COc1noc2ccc(Cl)cc12 (stereo not drawn) [Example 3, 3-(3-Carbamoyloxy-2-hydroxypropoxy)-5-chloro-1,2-benzisoxazole] |  |  | 106.5 ± 9.9 | 7.1 ± 0.9 | 392.2 ± 21.2 | 306.9 ± 17.1 | 36.3 ± 16.7 | 420.0 ± 0.0 | prolonged onset time of convulsions, survival time significantly | 80.0 | prolonged onset time of convulsions, survival time significantly | 100 | 213.0 ± 27.5 | 446.7 ± 36.9 | Duration of the effect ([3]; 20 mg/kg p.o.): > 90 min; Onset of the effect ([3]; 20 mg/kg p.o.): 5 min; Duration of the effect ([3]; 30 mg/kg p.o.): > 90 min; Onset of the effect ([3]; 30 mg/kg p.o.): 5 min; Duration of the effect ([3]; 100 mg/kg p.o.): > 90 min; Onset of the effect ([3]; 100 mg/kg p.o.): 5 min; inhibition in vivo at 20 mg/kg ([3]; Rattus norvegicus, po, 20 mg/kg p.o., read-out: Maximum inhibition): 60%; inhibition in vivo at 30 mg/kg ([3]; Rattus norvegicus, po, 30 mg/kg p.o., read-out: Maximum inhibition): 90%; inhibition in vivo at 100 mg/kg ([3]; Rattus norvegicus, po, 100 mg/kg p.o., read-out: Maximum inhibition): 90%; Survival rate of ischemic animals, in words ([2]; 100 mg/kg): increased survival rate of ischemic animals |
| NC(=O)OCC(O)COc1cc(-c2cccc(Cl)c2)on1 (stereo not drawn) [Example 4, 3-(3-Carbamoyloxy-2-hydroxypropoxy)-5-(m-chlorophenyl)isoxazole] | 233.9 | 344.2 |  |  |  | 97.6 ± 18.0 | 10.1 ± 1.8 | 322.4 ± 34.8 |  |  | prolonged onset time of convulsions, survival time significantly | 44.4 |  | 178.9 ± 15.0 | Recovery time of righting reflex [1]: 115.7 min |
| Cl.OC(COc1cc(-c2ccccc2)on1)CN1CCOCC1 (stereo not drawn) [Example 20, 3-(2-Hydroxy-3-morpholinopropoxy)-5-phenylisoxazole hydrochloride] |  |  | 71.9 ± 9.3 | 6.5 ± 0.6 | 295.9 ± 32.3 | 176.7 ± 25.8 | 6.9 ± 0.9 | 371.9 ± 26.3 | prolonged onset time of convulsions, survival time significantly | 36.4 | prolonged onset time of convulsions, survival time significantly | 63.6 | 124.6 ± 15.4 | 349.5 ± 59.1 |  |
